Molecular target: T1, human GABA A α5β3γ2 receptor (Homo sapiens, UniProt P18507+P31644)
T1 construct: expressed in transfected cells; host or cells: HEK293 (transiently transfected), membranes
Test: [3H]flumazenil competition binding to HEK293 cells expressing human GABA A receptors
Details: competition for [3H]flumazenil (0.5 nM for α5); HEK293 cells expressing human (transiently transfected) receptors; means of two determinations; read-out: hKi GABA Aα5
Experimental: The affinity of compounds at GABA A receptor subtypes was measured by competition for [^3H]flumazenil (85 Ci/mmol; Roche) binding to HEK293 cells expressing rat (stably transfected) or human (transiently transfected) receptors of composition α1β3γ2, α2β3γ2, α3β3γ2 and α5β3γ2.
Cell pellets were suspended in Krebs-tris buffer (4.8 mM KCl, 1.2 mM CaCl2, 1.2 mM MgCl2, 120 mM NaCl, 15 mM Tris; pH 7.5; binding assay buffer), homogenized by polytron for ca. 20 sec on ice and centrifuged for 60 min at 4° C. (50000 g; Sorvall, rotor: SM24=20000 rpm). The cell pellets were resuspended in Krebs-tris buffer and homogenized by polytron for ca. 15 sec on ice. Protein was measured (Bradford method, Bio-Rad) and aliquots of 1 mL were prepared and stored at −80° C.
Radioligand binding assays were carried out in a volume of […] (96-well plates) which contained […] of cell membranes, [^3H]flumazenil at a concentration of 1 nM for α1, α2, α3 subunits and 0.5 nM for α5 subunits and the test compound in the range of […]. Nonspecific binding was defined by 10^−5 M diazepam and typically represented less than 5% of the total binding. Assays were incubated to equilibrium for 1 hour at 4° C. and harvested onto GF/C uni-filters (Packard) by filtration using a Packard harvester and washing with ice-cold wash buffer (50 mM Tris; pH 7.5). After drying, filter-retained radioactivity was detected by liquid scintillation counting. Ki values were calculated using Excel-Fit (Microsoft) and are the means of two determinations.
Representative test results, obtained by the above described assay measuring binding affinity to HEK293 cells expressing human (h) receptors, are shown in table 1 below.

Row | SMILES | Ki [nM]
1 | CCCCc1noc(C)c1COc1ccc(C(=O)NCCO)cn1 [Example 10, 6-((3-Butyl-5-methyl-isoxazol-4-yl)methoxy)-N-(2-hydroxy-ethyl)-nicotinamide] | 5.7
2 | CCCC(C)c1noc(C)c1COc1ccc(C(=O)NC(C)C)cn1 (stereo not drawn) [Example 29, N-Isopropyl-6-[(5-methyl-3-(1-methyl-butyl)-isoxazol-4-yl)methoxyl]-nicotinamide] | 70.9
3 | Cc1onc(C2CCOCC2)c1COc1ccc(C(=O)N[C@@H](C)CO)cn1 [Example 38, N—((S)-2-Hydroxy-1-methyl-ethyl)-6-[(5-methyl-3-(tetrahydro-pyran-4-yl)-isoxazol-4-yl)methoxy]-nicotinamide] | 41.6
4 | CCCCc1noc(C)c1COc1ccc(C(=O)N[C@@H](C)CO)cn1 [Example 12, (−)-6-((3-Butyl-5-methyl-isoxazol-4-yl)methoxy)-N-(2-hydroxy-1-methyl-ethyl)-nicotinamide] | 3.8
5 | Cc1onc(C2CCCCC2)c1COc1ccc(C(=O)NC(C)CO)cn1 (stereo not drawn) [Example 36, 6-((3-Cyclohexyl-5-methyl-isoxazol-4-yl)methoxy)-N-(2-hydroxy-1-methyl-ethyl)-nicotinamide] | 3.7
6 | CCCCc1nocc1COc1ccc(C(=O)N[C@@H](C)CO)cn1 [Example 28, 6-((3-Butyl-isoxazol-4-yl)methoxy)-N—((S)-2-hydroxy-1-methyl-ethyl)-nicotinamide] | 36.1
7 | Cc1onc(CCC(F)(F)F)c1COc1ccc(C(=O)NC2CCOCC2)cn1 [Example 4, 6-[(5-Methyl-3-(3,3,3-trifluoro-propyl)-isoxazol-4-yl)methoxy]-N-(tetrahydro-pyran-4-yl)-nicotinamide] | 39.9
8 | CCCCc1nocc1COc1ccc(C(=O)NC(C)C)cn1 [Example 25, 6-((3-Butyl-isoxazol-4-yl)methoxy)-N-isopropyl-nicotinamide] | 41.1
9 | Cc1onc(OCC(C)C)c1COc1ccc(C(=O)NC(C)C)cn1 [Example 39, 6-((3-Isobutoxy-5-methyl-isoxazol-4-yl)methoxy)-N-isopropyl-nicotinamide] | 4.7
10 | CCCCc1noc(C)c1COc1ccc(C(=O)NCC(C)(C)O)cn1 [Example 13, 6-((3-Butyl-5-methyl-isoxazol-4-yl)methoxy)-N-(2-hydroxy-2-methyl-propyl)-nicotinamide] | 9.2
11 | CCCCc1noc(C)c1COc1ccc(C(=O)NC(C)CO)cn1 (single isomer, unassigned; (+)) [Example 11, (+)-6-((3-Butyl-5-methyl-isoxazol-4-yl)methoxy)-N-(2-hydroxy-1-methyl-ethyl)-nicotinamide] | 7.3

Results, then the molecule that gave them:

Row | Ki [nM] | SMILES
12 | 20.3 | Cc1onc(C2CCCCC2)c1COc1ccc(C(=O)NC(C)(C)CO)cn1 [Example 35, 6-((3-Cyclohexyl-5-methyl-isoxazol-4-yl)methoxy)-N-(2-hydroxy-1,1-dimethyl-ethyl)-nicotinamide]
13 | 21.1 | CCCCc1noc(C)c1COc1ccc(C(=O)N2CCS(=O)(=O)CC2)cn1 [Example 18, [6-((3-Butyl-5-methyl-isoxazol-4-yl)methoxy)-pyridin-3-yl]-(1,1-dioxo-1,6-thiomorpholin-4-yl)-methanone]
14 | 21.9 | Cc1onc(C2CCOCC2)c1COc1ccc(C(=O)NC(C)C)cn1 [Example 37, N-Isopropyl-6-[(5-methyl-3-(tetrahydro-pyran-4-yl)-isoxazol-4-yl)methoxy]-nicotinamide]
15 | 8.4 | CCCCc1noc(C)c1COc1ccc(C(=O)N[C@@H](C)C(F)(F)F)cn1 [Example 19, 6-((3-Butyl-5-methyl-isoxazol-4-yl)methoxy)-N—((S)-2,2,2-trifluoro-1-methyl-ethyl)-nicotinamide]
16 | 51.9 | CCCCc1nocc1COc1ccc(C(=O)NC2CCOCC2)cn1 [Example 27, 6-((3-Butyl-isoxazol-4-yl)methoxy)-N-(tetrahydro-pyran-4-yl)-nicotinamide]
17 | 5.2 | CCCCc1noc(C)c1COc1ccc(C(=O)NCC(C)O)cn1 (stereo not drawn) [Example 17, 6-((3-Butyl-5-methyl-isoxazol-4-yl)methoxy)-N-(2-hydroxy-propyl)-nicotinamide]
18 | 50.8 | CCCc1noc(C)c1COc1ccc(C(=O)NC2CCOCC2)cn1 [Example 2, 6-((5-Methyl-3-propyl-isoxazol-4-yl)methoxy)-N-(tetrahydro-pyran-4-yl)-nicotinamide]
19 | 4 | Cc1onc(N2CCCC2)c1COc1ccc(C(=O)NC(C)C)cn1 [Example 40, N-Isopropyl-6-((5-methyl-3-pyrrolidin-1-yl-isoxazol-4-yl)methoxy)-nicotinamide]
20 | 44.9 | CCCCc1nocc1COc1ccc(C(=O)NCC(F)(F)F)cn1 [Example 26, 6-((3-Butyl-isoxazol-4-yl)methoxy)-N-(2,2,2-trifluoro-ethyl)-nicotinamide]
21 | 57.9 | CCCCc1noc(C)c1CNc1ccc(C(=O)NC(C)C)cn1 [Example 42, 6-[((3-Butyl-5-methyl-isoxazol-4-yl)methyl)-amino]-N-isopropyl-nicotinamide]
22 | 6.5 | CCCCc1noc(C)c1COc1ccc(C(=O)NC2CC2)cn1 [Example 6, 6-((3-Butyl-5-methyl-isoxazol-4-yl)methoxy)-N-cyclopropyl-nicotinamide]
23 | 5.2 | CCCCc1noc(C)c1COc1ccc(C(=O)NC2CCOCC2)cn1 [Example 7, 6-((3-Butyl-5-methyl-isoxazol-4-yl)methoxy)-N-(tetrahydro-pyran-4-yl)-nicotinamide]
24 | 6.5 | CCCCc1noc(C)c1COc1ccc(C(=O)N[C@H]2CCOC2)cn1 [Example 16, 6-((3-Butyl-5-methyl-isoxazol-4-yl)methoxy)-N-(S)-tetrahydro-furan-3-yl-nicotinamide]
25 | 37.6 | Cc1onc(C2CCCC2)c1COc1ccc(C(=O)NC(C)C)cn1 [Example 30, 6-((3-Cyclopentyl-5-methyl-isoxazol-4-yl)methoxy)-N-isopropyl-nicotinamide]
26 | 5.8 | Cc1onc(C2CCCCC2)c1COc1ccc(C(=O)NCCO)cn1 [Example 34, 6-((3-Cyclohexyl-5-methyl-isoxazol-4-yl)methoxy)-N-(2-hydroxy-ethyl)-nicotinamide]
27 | 49 | Cc1onc(CCC(F)(F)F)c1COc1ccc(C(=O)NC(C)C)cn1 [Example 3, N-Isopropyl-6-[(5-methyl-3-(3,3,3-trifluoro-propyl)-isoxazol-4-yl)methoxy]-nicotinamide]

Reference: patent US8357703B2, “Pyridines” (Hoffmann-La Roche Inc., priority 2009, dated 2013)
